According to patent US12673933B2, “Aminopyrazine compounds as HPK1 inhibitor and the use thereof” (BEIGENE, LTD., priority 2019, dated 2026):
pIC50: −log10 of the molar value.

Molecular target: T1, HPK1 kinase (aa1-346, Life Technologies) (Homo sapiens, UniProt Q92918)
T1 construct: HPK1 kinase (aa1-346, Life Technologies); purchased Life Technologies
T1 sequence (Q92918 1-346): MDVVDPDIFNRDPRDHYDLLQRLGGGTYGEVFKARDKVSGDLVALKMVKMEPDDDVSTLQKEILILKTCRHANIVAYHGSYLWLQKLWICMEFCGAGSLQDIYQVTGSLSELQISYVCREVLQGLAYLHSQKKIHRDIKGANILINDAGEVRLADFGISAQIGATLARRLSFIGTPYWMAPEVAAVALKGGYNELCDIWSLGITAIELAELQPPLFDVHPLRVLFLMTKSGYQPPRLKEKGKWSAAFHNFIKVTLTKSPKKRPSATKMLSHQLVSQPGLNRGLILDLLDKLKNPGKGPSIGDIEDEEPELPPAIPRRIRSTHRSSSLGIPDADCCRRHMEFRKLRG
Assay: HPK Kinase Activity Assay at 1 mM ATP (TR-FRET)
Type: biochemical
Details: HPK1 kinase 40 nM, 0.5 μM STK1 substrate, read-out: Enzymatic activity IC50
Method: HPK Kinase Activity Assay at 1 mM ATP
Compounds disclosed herein were tested for inhibition of HPK1 kinase (aa1-346, Life Technologies) activity in assays based on the time-resolved fluorescence-resonance energy transfer (TR-FRET) methodology. The assays were carried out in 384-well low volume black plates in a reaction mixture containing HPK1 kinase (40 nM), 1 mM ATP, 0.5 μM STK1 substrate and 0-10 μM compound in buffer containing 50 mM HEPES, 0.01% BSA, 0.1 mM Orthovanadate, 10 mM MgCl2, 1 mM DTT, pH=7.0, 0.005% Tween-20. The kinase was incubated with the compounds disclosed herein or DMSO for 60 minutes at room temperature and the reaction was initiated by the addition of ATP and STK1 substrate. After reaction at room temperature for 120 minutes, an equal volume of stop/detection solution was added according to the manufacture's instruction (CisBio). The stop/detection solution contained STK Antibody-Cryptate and XL665-conjugated streptavidin in Detection Buffer. The TR-FRET signals (ratio of fluorescence emission at 665 nm over emission at 620 nm with excitation at 337 nm wavelength) were recorded on a PHERAstar FS plate reader (BMG Labtech). Phosphorylation of STK1 substrate led to the binding of STK Antibody-Cryptate to the biotinylated STK1 substrate, which places fluorescent donor (Eu^3+ crypate) in close proximity to the accepter (Streptavidin-XL665), thus resulting in a high degree of fluorescence resonance energy transfer. The inhibition of HPK1 in presence of increasing concentrations of compounds was calculated based on the ratio of fluorescence at 665 nm to that at 620 nm. The IC50 for each compound was derived from fitting the data to the four-parameter logistic equation by Graphpad Prism software.

| Structure (SMILES) | pIC50 |
| --- | --- |
| Cc1cc(-c2cnc(N)c(OCc3ccncc3OCc3ccccc3)n2)cc2c1CCN(C)C2 [Example 33, 3-((3-(benzyloxy)pyridin-4-yl)methoxy)-5-(2,5-dimethyl-1,2,3,4-tetrahydroisoquinolin-7-yl)pyrazin-2-amine] | 8.09 |
| Cc1cc(-c2cnc(N)c(OCc3ccnc(C#Cc4ccncc4)c3)n2)cc2c1CCN(C)C2 [Example 23, 5-(2,5-dimethyl-1,2,3,4-tetrahydroisoquinolin-7-yl)-3-((2-(pyridin-4-ylethynyl)pyridin-4-yl)methoxy)pyrazin-2-amine] | 6.86 |
| Cc1cc(-c2cnc(N)c(-n3cc(C(=O)N4CCC(F)(F)C4)cn3)n2)cc2c1CCN(C)C2 [Example 281, (1-(3-amino-6-(2,5-dimethyl-1,2,3,4-tetrahydroisoquinolin-7-yl)pyrazin-2-yl)-1H pyrazol-4-yl)(3,3-difluoropyrrolidin-1-yl)methanone] | 7.25 |
| Cc1cc(-c2cnc(N)c(OCc3ccnc4[nH]ccc34)n2)cc2c1CCN(C)C2 [Example 34, 3-((1H-pyrrolo[2,3-b]pyridin-4-yl)methoxy)-5-(2,5-dimethyl-1,2,3,4-tetrahydroisoquinolin-7-yl)pyrazin-2-amine] | 7.92 |
| COc1c(COc2nc(-c3cc(C)c4c(c3)CN(C)CC4)cnc2N)ccnc1N [Example 35, 3-((2-amino-3-methoxypyridin-4-yl)methoxy)-5-(2,5-dimethyl-1,2,3,4-tetrahydroisoquinolin-7-yl)pyrazin-2-amine] | 7.80 |
| Cc1cc(-c2cnc(N)c(-n3cc(C(=O)NCc4ccc(F)cc4Cl)cn3)n2)cc2c1CCN(C)C2 [Example 300, 1-(3-amino-6-(2,5-dimethyl-1,2,3,4-tetrahydroisoquinolin-7-yl)pyrazin-2-yl)-N-(2-chloro-4-fluorobenzyl)-1H-pyrazole-4-carboxamide] | 8.12 |
| Cc1cc(-c2cnc(N)c(OC3CCc4cnccc43)n2)cc2c1CCN(C)C2 (stereo not shown) [Example 13, 3-(6,7-dihydro-5H-cyclopenta[c]pyridin-5-yloxy)-5-(2,5-dimethyl-1,2,3,4-tetrahydroisoquinolin-7-yl)pyrazin-2-amine] | 7.21 |
| Cc1cc(-c2cnc(N)c(OCc3ccncn3)n2)cc2c1CCN(C)C2 [Example 3, 5-(2,5-dimethyl-1,2,3,4-tetrahydroisoquinolin-7-yl)-3-(pyrimidin-4-ylmethoxy)pyrazin-2-amine] | 6.44 |
| COc1cc(-c2cnc(N)c(OCc3ccnc(N)c3)n2)cc2c1CCN(C)C2 [Example 179, 3-((2-aminopyridin-4-yl)methoxy)-5-(5-methoxy-2-methyl-1,2,3,4-tetrahydroisoquinolin-7-yl)pyrazin-2-amine] | 8.14 |
| Cc1cc(-c2cnc(N)c(Oc3cnn([C@H]4C[C@H](C#N)C4)c3)n2)cc2c1CCN(C)C2 [Example 315, (1r,3r)-3-(4-((3-amino-6-(2,5-dimethyl-1,2,3,4-tetrahydroisoquinolin-7-yl)pyrazin-2-yl)oxy)-1H-pyrazol-1-yl)cyclobutane-1-carbonitrile] | 7.48 |
| Cc1cc(-c2cnc(N)c(Oc3cnn(CC4CCOCC4)c3)n2)cc2c1CCN(C)C2 [Example 293, 5-(2,5-dimethyl-1,2,3,4-tetrahydroisoquinolin-7-yl)-3-(1-((tetrahydro-2H-pyran-4-yl)methyl)-1H-pyrazol-4-yloxy)pyrazin-2-amine] | 7.43 |
| CC(=O)Nc1cc(COc2nc(-c3cc(C)c4c(c3)CN(C)CC4)cnc2N)ccn1 [Example 39, N-(4-(((3-amino-6-(2,5-dimethyl-1,2,3,4-tetrahydroisoquinolin-7-yl)pyrazin-2-yl)oxy)methyl)pyridin-2-yl)acetamide] | 7.07 |
| Cc1cc(-c2cnc(N)c(Oc3cnn(CC(C)(C)C#N)c3)n2)cc2c1CN(C)CC2 [Example 318, 3-(4-(3-amino-6-(2,8-dimethyl-1,2,3,4-tetrahydroisoquinolin-6-yl)pyrazin-2-yloxy)-1H-pyrazol-1-yl)-2,2-dimethylpropanenitrile] | 7.22 |
| [2H]C([2H])(Oc1nc(-c2cc(C)c3c(c2)CN(C)CC3)cnc1N)c1ccnc(N)c1 [Example 266, 3-((2-aminopyridin-4-yl)methoxy-d2)-5-(2,5-dimethyl-1,2,3,4-tetrahydroisoquinolin-7-yl)pyrazin-2-amine] | 8.29 |
| Cc1cc(-c2cnc(N)c(OCc3ccnc(N)c3)n2)cc2c1CN(C)CC2 [Example 31, 3-((2-aminopyridin-4-yl)methoxy)-5-(2,8-dimethyl-1,2,3,4-tetrahydroisoquinolin-6-yl)pyrazin-2-amine] | 7.60 |
| CCOc1c(COc2nc(-c3cc(C)c4c(c3)CN(C)CC4)cnc2N)ccnc1N [Example 41, 3-((2-amino-3-ethoxypyridin-4-yl)methoxy)-5-(2,5-dimethyl-1,2,3,4-tetrahydroisoquinolin-7-yl)pyrazin-2-amine] | 8.05 |

Results, then the compound that gave them:

| pIC50 | Structure (SMILES) |
| --- | --- |
| 7.42 | Cc1cc(-c2cnc(N)c(OCc3ccnc4ccccc34)n2)cc2c1CCN(C)C2 [Example 22, 5-(2,5-dimethyl-1,2,3,4-tetrahydroisoquinolin-7-yl)-3-(quinolin-4-ylmethoxy)pyrazin-2-amine] |
| 6.82 | Cc1cc(-c2cnc(N)c(OCc3ccnc(C#Cc4ccc(F)cc4)c3)n2)cc2c1CCN(C)C2 [Example 20, 5-(2,5-dimethyl-1,2,3,4-tetrahydroisoquinolin-7-yl)-3-((2-((4-fluorophenyl)ethynyl)pyridin-4-yl)methoxy)pyrazin-2-amine] |
| 7.03 | Cc1cc(-c2cnc(N)c(OCc3ccncc3Oc3ccccc3)n2)cc2c1CCN(C)C2 [Example 42, 5-(2,5-dimethyl-1,2,3,4-tetrahydroisoquinolin-7-yl)-3-((3-phenoxypyridin-4-yl)methoxy)pyrazin-2-amine] |
| 7.89 | CC#Cc1cc(COc2nc(-c3cc(C)c4c(c3)CN(C)CC4)cnc2N)ccn1 [Example 25, 5-(2,5-dimethyl-1,2,3,4-tetrahydroisoquinolin-7-yl)-3-((2-(prop-1-ynyl)pyridin-4-yl)methoxy)pyrazin-2-amine] |
| 7.77 | Cc1cc(-c2cnc(N)c(Oc3cnn(C(C)c4cccnc4)c3)n2)cc2c1CCN(C)C2 (stereo not shown) [Example 288, 5-(2,5-dimethyl-1,2,3,4-tetrahydroisoquinolin-7-yl)-3-(1-(1-(pyridin-3-yl)ethyl)-1H-pyrazol-4-yloxy)pyrazin-2-amine] |
| 7.30 | Cc1cc(-c2cnc(N)c(OCc3ccnc(C#CC4CC4)c3)n2)cc2c1CCN(C)C2 [Example 11, 3-((2-(cyclopropylethynyl)pyridin-4-yl)methoxy)-5-(2,5-dimethyl-1,2,3,4-tetrahydroisoquinolin-7-yl)pyrazin-2-amine] |
| 7.24 | Cc1cc(-c2cnc(N)c(OCc3ccnc(NCC4CC4)c3)n2)cc2c1CCN(C)C2 [Example 38, 3-((2-((cyclopropylmethyl)amino)pyridin-4-yl)methoxy)-5-(2,5-dimethyl-1,2,3,4-tetrahydroisoquinolin-7-yl)pyrazin-2-amine] |
| 8.19 | Cc1cc(-c2cnc(N)c(Oc3cnn(CCC#N)c3)n2)cc2c1CCN(C)C2 [Example 277, 3-(4-((3-amino-6-(2,5-dimethyl-1,2,3,4-tetrahydroisoquinolin-7-yl)pyrazin-2-yl)oxy)-1H-pyrazol-1-yl)propanenitrile] |
| 7.29 | Cc1cc(-c2cnc(N)c(Oc3cnn(C4CCN(C)C4)c3)n2)cc2c1CCN(C)C2 (single isomer, unassigned) [Example 280B] |
